According to patent publication US7342014B2, “Diamine derivatives” (Daiichi Pharmaceutical Co., Ltd., priority 2001, dated 2008):
pIC50: −log10 of the molar value. Counter-ions that a name gives are not always drawn. Like-named read-outs stand apart in the source and are kept apart here.

Key:
human FXa [1] = biological target: T1, human FXa (Homo sapiens, UniProt P00742); experiment: Determination of human FXa-inhibiting effect (IC50 value); assay type: biochemical
T1 construct: purchased Enzyme Research Labolatories, Inc
T1 sequence (P00742 235-488 limits assumed): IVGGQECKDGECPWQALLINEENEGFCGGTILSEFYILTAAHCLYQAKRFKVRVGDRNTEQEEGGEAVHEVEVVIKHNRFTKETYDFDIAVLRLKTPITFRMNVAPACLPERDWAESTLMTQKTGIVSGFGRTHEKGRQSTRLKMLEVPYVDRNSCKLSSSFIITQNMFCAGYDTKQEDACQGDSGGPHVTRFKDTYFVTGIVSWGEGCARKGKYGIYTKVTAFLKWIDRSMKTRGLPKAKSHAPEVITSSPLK
T1 sequence (P00742 41-179 partner limits assumed): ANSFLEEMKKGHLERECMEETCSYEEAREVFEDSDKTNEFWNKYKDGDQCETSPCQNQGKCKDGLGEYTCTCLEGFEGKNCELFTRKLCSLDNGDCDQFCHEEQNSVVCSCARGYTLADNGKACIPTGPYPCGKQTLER
Excerpt: Determination of Human FXa-inhibiting Effect (IC50 Value)
As a control, Tris buffer was used in place of the test compound.

human FXa [2] = biological target: T1, human FXa; experiment: Determination of anti-FXa activity in rat plasma after oral administration; assay type: in vivo; conditions: rats, oral dose of 10 mg/kg, plasma collected 0.5, 1, 2 and 4 hours after administration, human FXa and S-2222; read-out: FXa-inhibiting activity (percent inhibition) in plasma
Protocol: Determination of Anti-FXa Activity in Rat Plasma After Oral Administration
(A) Administration and Blood Collection:
A drug solution (1 mg/ml) obtained by dissolving or suspending a test compound (10 mg) in 0.5% methyl cellulose (MC) was orally administered to rats (10 ml/kg). […] For rats of a control group, the same blood collection was conducted after a 0.5% MC solution was administered. Each blood sample was centrifuged at 1500×g for 10 minutes at 4° C. to separate plasma, and the plasma was preserved at −40° C. until it was used in the following determination of anti-FXa activity in plasma.
(B) Determination of FXa-inhibiting Activity in Plasma:
Tris buffer (100 mM Tris, 200 mM potassium chloride, 0.2% BSA, pH 7.4) (5456 μl), human FXa (2.5 U/ml, 44 μl) and water (550 μl) were mixed. The resultant human FXa solution was used in the following test.
The anti-FXa activity, i.e., percent inhibition (%) was calculated in accordance with the following equation: […]

[3] = human FXa, substrate S-2222, absorbance at 405 nm, room temperature, read-out: Human FXa-inhibiting effect (IC50)

SMILES	pIC50 (human FXa [1]; [3])	further results
CN1CCc2nc(C(=O)N[C@@H]3C[C@@H](C(=O)N(C)C)CC[C@@H]3NC(=O)C(=O)Nc3ccc(Cl)cc3)sc2C1 [Example 191, N^1-(4-Chlorophenyl)-N^2-((1S,2R,4S)-4-[(dimethylamino)-carbonyl]-2-{[(5-methyl-4,5,6,7-tetrahydrothiazolo[5,4-c]-pyridin-2-yl)carbonyl]amino}cyclohexyl)ethanediamide hydrochloride]	8.92	inhibition at 10 mg/kg (human FXa [2]): 62 to 96%
CN1CCc2nc(C(=O)N[C@@H]3CN(C(=O)C4CC4)CC[C@@H]3NC(=O)c3cc4cc(Cl)ccc4[nH]3)sc2C1 (relative stereo) [Example 138, N-[(3R*,4S*)-4-{[(5-Chloroindol-2-yl)carbonyl]amino}-1-(cyclopropylcarbonyl)piperidin-3-yl]-5-methyl-4,5,6,7-tetrahydrothiazolo[5,4-c]pyridine-2-carboxamide hydrochloride]	8.36	
CN1CCc2nc(C(=O)N[C@@H]3C[C@@H](C(=O)N(C)C)CC[C@@H]3NC(=O)C(=O)Nc3ccc(Br)cn3)sc2C1 [Example 204, N^1-(5-Bromopyridin-2-yl)-N^2-((1S,2R,4S)-4-[(dimethylamino)-carbonyl]-2-{[(5-methyl-4,5,6,7-tetrahydrothiazolo[5,4-c]-pyridin-2-yl)carbonyl]amino}cyclohexyl)ethanediamide hydrochloride]	8.82	inhibition at 10 mg/kg (human FXa [2]): 62 to 96%
CN1CCc2nc(C(=O)N[C@@H]3C[C@@H](C(=O)N(C)C)CC[C@@H]3NC(=O)C(=O)Nc3ccc(F)cc3)sc2C1 [Example 194, N^1-((1S,2R,4S)-4-[(Dimethylamino)carbonyl]-2-{[(5-methyl-4,5,6,7-tetrahydrothiazolo[5,4-c]pyridin-2-yl)carbonyl]amino}cyclohexyl)-N^2-(4-fluorophenyl)-ethanediamide hydrochloride]	8.30	inhibition at 10 mg/kg (human FXa [2]): 62 to 96%
CN1CCc2nc(C(=O)N[C@@H]3CN(C(=O)NC(C)(C)C)CC[C@@H]3NC(=O)c3cc4cc(Cl)ccc4[nH]3)sc2C1.Cl (relative stereo) [Example 164, N-((3R*,4S*)-1-[(tert-Butylamino)carbonyl]-4-{[(5-chloroindol-2-yl)carbonyl]amino}piperidin-3-yl)-5-methyl-4,5,6,7-tetrahydrothiazolo[5,4-c]pyridine-2-carboxamide hydrochloride]	8.32	melting point: 236 to 238 °C (dec.)
CN1CCc2nc(C(=O)N[C@@H]3C[C@@H](C(=O)N(C)C)CC[C@@H]3NC(=O)C(=S)Nc3ccc(Cl)cn3)sc2C1 [Ex. 248, N-{(1R,2S,5S)-2-({2-[(5-Chloropyridin-2-yl)amino]-2-thioxoacetyl}amino)-5-[(dimethylamino)carbonyl]-cyclohexyl}-5-methyl-4,5,6,7-tetrahydrothiazolo[5,4-c]-pyridine-2-carboxamide]	8.27	
CCNC(=O)[C@H]1CC[C@H](NC(=O)c2cc3cc(Cl)ccc3[nH]2)[C@H](NC(=O)c2nc3c(s2)CN(C)CC3)C1 [Example 62, N-{(1R,2S,5S)-2-{[(5-Chloroindol-2-yl)carbonyl]amino}-5-[(ethylamino)carbonyl]cyclohexyl}-5-methyl-4,5,6,7-tetrahydrothiazolo[5,4-c]pyridine-2-carboxamide hydrochloride]	8.46	
CN1CCc2nc(C(=O)N[C@H]3CCC[C@@H]3NC(=O)c3cc4cc(Cl)ccc4[nH]3)sc2C1 (relative stereo) [Example 3, N-((1R*,2R*)-2-{[(5-Chloroindol-2-yl)carbonyl]amino}-cyclopentyl)-5-methyl-4,5,6,7-tetrahydrothiazolo[5,4-c]-pyridine-2-carboxamide hydrochloride]		pIC50 (human FXa [1]): 7.07
CN1CCc2nc(C(=O)N[C@@H]3CCCC[C@@H]3NC(=O)c3ccc4cc(Cl)ccc4c3)sc2C1 (relative stereo) [Example 7, N-{(1R*,2S*)-2-[(6-Chloronaphthoyl)amino]cyclohexyl}-5-methyl-4,5,6,7-tetrahydrothiazolo[5,4-c]pyridine-2-carboxamide hydrochloride]	7.08	
COCC(=O)N1CC[C@H](NC(=O)c2cc3cc(Cl)ccc3[nH]2)[C@H](NC(=O)c2nc3c(s2)CN(C)CC3)C1 (relative stereo) [Example 143, N-[(3R*,4S*)-4-{[(5-Chloroindol-2-yl)carbonyl]amino}-1-(2-methoxyacetyl)piperidin-3-yl]-5-methyl-4,5,6,7-tetrahydro-thiazolo[5,4-c]pyridine-2-carboxamide hydrochloride]	8.24	
CN1CCc2nc(C(=O)N[C@@H]3C[C@@H](C(=O)N(C)C)CC[C@@H]3NC(=S)C(=O)Nc3ccc(Cl)cn3)sc2C1 [Ex. 247, N-{(1R,2S,5S)-2-({2-[(5-Chloropyridin-2-yl)amino]-2-oxoethanethioyl}amino)-5-[(dimethylamino)carbonyl]-cyclohexyl}-5-methyl-4,5,6,7-tetrahydrothiazolo[5,4-c]-pyridine-2-carboxamide]	8.72	
CN1CCc2nc(C(=O)N[C@@H]3C[C@@H](C(=O)N(C)C)CC[C@@H]3NC(=S)C(=O)Nc3ccc(Cl)cc3)sc2C1 [Ex. 246, N-{(1R,2S,5S)-2-{[2-(4-Chloroanilino)-2-oxoethane-thioyl]amino}-5-[(dimethylamino)carbonyl]cyclohexyl}-5-methyl-4,5,6,7-tetrahydrothiazolo[5,4-c]pyridine-2-carboxamide]	8.51	
CCOC(=O)N1CC[C@H](NC(=O)c2cc3cc(Cl)ccc3[nH]2)[C@H](NC(=O)c2nc3c(s2)CN(C)CC3)C1 (relative stereo) [Example 130, Ethyl (3R*,4S*)-4-{[(5-chloroindol-2-yl)carbonyl]amino}-3-{[(5-methyl-4,5,6,7-tetrahydrothiazolo[5,4-c]pyridin-2-yl)carbonyl]amino}piperidine-1-carboxylate hydrochloride]	8.35	
CN1CCc2nc(C(=O)N[C@@H]3CN(S(=O)(=O)CC(=O)O)C[C@H]3NC(=O)c3cc4cc(Cl)ccc4[nH]3)sc2C1 [Example 101, 2-[((3R,4R)-3-{[(5-Chloroindol-2-yl)carbonyl]amino}-4-{[(5-methyl-4,5,6,7-tetrahydrothiazolo[5,4-c]pyridin-2-yl)carbonyl]amino}pyrrolidin-1-yl)sulfonyl]acetic acid]	7.59	
COCC(=O)N1CC[C@H](NC(=O)c2cc3cc(F)ccc3[nH]2)[C@H](NC(=O)c2nc3c(s2)CN(C(C)C)CC3)C1 (relative stereo) (as salt: hydrochloride)		melting point: 214 to 228 °C (dec.)
COC(=O)[C@@H]1CC[C@H](NC(=O)c2cc3cc(Cl)ccc3[nH]2)[C@H](NC(=O)c2nc3c(s2)CN(C)CC3)C1 [Example 54, Methyl (1R,3R,4S)-4-{[(5-chloroindol-2-yl)carbonyl]amino}-3-{[(5-methyl-4,5,6,7-tetrahydrothiazolo[5,4-c]pyridin-2-yl)carbonyl]amino}cyclohexanecarboxylate]	8.38	
CN1CCc2nc(C(=O)N[C@@H]3CCS(=O)(=O)C[C@@H]3NC(=O)c3cc4cc(F)ccc4[nH]3)sc2C1 (relative stereo) (as salt: hydrochloride) [Example 183, N-((3R*,4R*)-3-{[(5-Fluoroindol-2-yl)carbonyl]amino}-1,1-dioxohexahydro-1-thiopyran-4-yl)-5-methyl-4,5,6,7-tetrahydrothiazolo[5,4-c]pyridine-2-carboxamide hydrochloride]		melting point: 244 to 249 °C
CN1CCc2nc(C(=O)N[C@@H]3CCCC[C@@H]3NC(=O)c3cc4cc(Br)ccc4[nH]3)sc2C1 (relative stereo) [Example 11, N-((1R*,2S*)-2-{[(5-Bromoindol-2-yl)carbonyl]amino}-cyclohexyl)-5-methyl-4,5,6,7-tetrahydrothiazolo[5,4-c]-pyridine-2-carboxamide hydrochloride]	7.04	
CC(=O)N1CC[C@H](NC(=O)c2cc3cc(F)ccc3[nH]2)[C@H](NC(=O)c2nc3c(s2)CN(C)CC3)C1 (relative stereo) (as salt: hydrochloride)		melting point: 202 °C (dec.)
CN1CCc2nc(C(=O)N[C@@H]3CN(C(=O)CC(C)(C)C)CC[C@@H]3NC(=O)c3cc4cc(Cl)ccc4[nH]3)sc2C1 (relative stereo) (as salt: hydrochloride) [Example 136, N-[(3R*,4S*)-4-{[(5-Chloroindol-2-yl)carbonyl]amino}-1-(3,3-dimethylbutanoyl)piperidin-3-yl]-5-methyl-4,5,6,7-tetrahydrothiazolo[5,4-c]pyridine-2-carboxamide hydrochloride]		melting point: 260 to 265 °C (dec.)
